As usually defined, the IC50 is the point on the concentration scale where inhibition reaches its midpoint.

Results on 35 compounds are retold here after ChEMBL document CHEMBL5052835, “Slc26a3 inhibitors and use thereof” (2021).

The target in series [1] is T1, Chloride anion exchanger (Mus musculus, UniProt Q9WVC8).
T1 sequence (Q9WVC8 whole entry): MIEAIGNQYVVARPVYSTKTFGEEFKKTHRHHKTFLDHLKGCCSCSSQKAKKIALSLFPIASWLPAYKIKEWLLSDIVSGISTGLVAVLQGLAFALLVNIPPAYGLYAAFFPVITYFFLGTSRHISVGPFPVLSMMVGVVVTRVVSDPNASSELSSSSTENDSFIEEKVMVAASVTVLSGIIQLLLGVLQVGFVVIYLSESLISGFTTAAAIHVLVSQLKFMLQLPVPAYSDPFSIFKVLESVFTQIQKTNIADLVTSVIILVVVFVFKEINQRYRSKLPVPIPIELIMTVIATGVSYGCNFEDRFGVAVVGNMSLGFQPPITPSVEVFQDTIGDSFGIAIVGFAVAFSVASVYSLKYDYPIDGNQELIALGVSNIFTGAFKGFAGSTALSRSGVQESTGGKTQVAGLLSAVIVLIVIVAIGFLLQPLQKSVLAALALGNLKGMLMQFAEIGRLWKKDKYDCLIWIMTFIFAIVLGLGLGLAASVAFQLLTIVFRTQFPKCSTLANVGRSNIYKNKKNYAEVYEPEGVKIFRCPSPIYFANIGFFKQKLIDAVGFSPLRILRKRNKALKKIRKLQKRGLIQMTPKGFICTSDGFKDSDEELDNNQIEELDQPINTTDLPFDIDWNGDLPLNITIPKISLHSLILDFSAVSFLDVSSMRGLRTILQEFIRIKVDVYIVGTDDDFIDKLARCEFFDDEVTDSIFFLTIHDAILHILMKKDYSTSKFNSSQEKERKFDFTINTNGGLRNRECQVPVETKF
Put plainly: Inhibition of mouse Slc26a3 transfected in rat FRT cells preincubated with forskolin, 8-Br-cGMP and PMA and measured by fluorescence assay. In kind it is cell-based.

In series [2] the test system is Mus musculus. As to the kind of experiment: In vivo inhibition of slc26a3 in loperamide-induced constipation model of female CD-1 mouse at 5 mg/kg, po assessed as reduction in stool weight. In kind it is functional, organism-based.
The subject of series [3] is Mus musculus. As to the kind of experiment: In vivo inhibition of slc26a3 in loperamide-induced constipation model of female CD-1 mouse at 5 mg/kg, po assessed as reduction in pellet number. In kind it is functional, organism-based.
The test system of series [4] is Mus musculus. Put plainly: In vivo inhibition of slc26a3 in loperamide-induced constipation model of female CD-1 mouse at 5 mg/kg, po assessed as reduction in stool water content. In kind it is functional, organism-based.
In series [5] the test system is Colon. As to the kind of experiment: Inhibition of fluid absorption in distal colonic loop isolated from female CD-1 mouse at 10 uM assessed as effect on reduction in loop weight/length ratio. In kind it is functional, tissue-based.
Series [6] concerns Mus musculus. As to the kind of experiment: In vivo inhibition of […] in loperamide-induced constipation model of female CD-1 mouse at 5 mg/kg, po assessed as reduction in stool weight. In kind it is functional, organism-based.
The test system of series [7] is Mus musculus. As to the kind of experiment: In vivo inhibition of […] in loperamide-induced constipation model of female CD-1 mouse at 5 mg/kg, po assessed as reduction in pellet number. In kind it is functional, organism-based.
Series [8] deals with Mus musculus. As to the kind of experiment: In vivo inhibition of […] in loperamide-induced constipation model of female CD-1 mouse at 5 mg/kg, po assessed as reduction in stool water content. In kind it is functional, organism-based.
Series [9] relates to Mus musculus. Put plainly: In vivo inhibition of slc26a3 in loperamide-induced constipation model of female CD-1 mouse at 1 to 10 mg/kg, po assessed as reduction in stool weight. In kind it is functional, organism-based. The note with it: dose 1-10 mg/kg.
Series [10] has as its system Mus musculus. As to the kind of experiment: In vivo inhibition of slc26a3 in loperamide-induced constipation model of female CD-1 mouse at 1 to 10 mg/kg, po assessed as reduction in pellet number. The note with it: dose 1-10 mg/kg. In kind it is functional, organism-based.
In series [11] the test system is Mus musculus. Put plainly: In vivo inhibition of slc26a3 in loperamide-induced constipation model of female CD-1 mouse at 1 to 10 mg/kg, po assessed as reduction in stool water content. In kind it is functional, organism-based. The note with it: dose 1-10 mg/kg.
Series [12] is described as follows: Toxicity in loperamide-induced constipation model of female CD-1 mouse at 10 mg/kg, po assessed as effect on stool parameters. In kind it is organism-based. The note with it: in vivo.
Series [13] can be described thus: Toxicity in loperamide-induced constipation model of female CD-1 mouse at 10 mg/kg, po assessed as diarrhea. In kind it is organism-based. The note with it: in vivo.
Series [14] deals with Mus musculus. As to the kind of experiment: Inhibition of oxalate absorption in sodium oxalate-induced acute hyperoxaluria mouse model at 10 mg/kg, ip. In kind it is functional, organism-based.
The species named for series [15] is Mus musculus. As to the kind of experiment: Inhibition of oxalate absorption in high oxalate and low calcium diet-induced oxalate nephropathy model of mouse assessed as normalization of creatinine level. In kind it is functional, organism-based.

Molecules are shown by their SMILES. The source made the active and inactive calls. The calls are words filed in the database; no cut-off is given here.

Regarding `Cc1ccc(NC(=O)CSc2nccn2-c2ccc(Cl)cc2)cc1Cl`, the IC50 in series [1] (read-out: IC50) stood at 11000 nM.

As to `COC(=O)CCc1c(C)c2ccc(OCc3ccc(C(C)(C)C)cc3)c(C)c2oc1=O`, the IC50 entry in series [1] (frt) was “Not Active”.

`Cc1cc(C)cc(-n2ccnc2SCC(=O)Nc2ccc(Cl)c(Cl)c2)c1`: the IC50 in [1] (read-out: IC50) came out at 2500 nM.

`CCc1ccc(NC(=O)CSc2nccn2-c2ccc(OC)cc2)cc1`: in [1] (read-out: IC50), the IC50 turned out to be 6500 nM.

With `Cc1cccc(COc2ccc3c(C)c(CC(=O)O)c(=O)oc3c2C)c1`, the IC50 in series [1] (read-out: IC50) stood at 480 nM.

Take `Cc1c(CCC(=O)O)c(=O)oc2c(C)c(OCc3ccc(F)cc3)ccc12`: the IC50 result in series [1] (frt) is “Not Active”.

On to `CCc1ccc(NC(=O)CSc2nccn2-c2cccc(C)c2C)cc1`, for which the IC50 in series [1] (read-out: IC50) was 3500 nM.

Turning to `COC(=O)CCc1c(C)c2ccc(OCc3cccc(OC)c3)c(C)c2oc1=O`, the IC50 result in series [1] (frt) was “Not Active”.

In the case of `O=C(CSc1nccn1-c1cccc(Cl)c1)Nc1ccc(Cl)cc1`, in [1] (read-out: IC50), the IC50 was determined as 2200 nM.

In the case of `Cc1c(CC(=O)O)c(=O)oc2c(C)c(OCc3cccc(Cl)c3)ccc12`, the IC50 in series [1] (read-out: IC50) is 200 nM.

Consider `Cc1ccc2ccccc2c1COc1ccc2c(C)c(CCC(=O)O)c(=O)oc2c1C`, for which, in series [1] (frt), the IC50 result is on record as “Not Active”.

In the case of `Cc1c(CC(=O)O)c(=O)oc2c(C)c(OCc3cccc(C(F)(F)F)c3)ccc12`, the inhibition result in [2], in series [3] and in series [4] was “Active” each time.

Regarding `O=C(CSc1nccn1-c1ccc(Cl)cc1)Nc1ccc(Br)cc1`, the IC50 in series [1] (read-out: IC50) amounted to 1800 nM.

For `Cc1c(CC(=O)O)c(=O)oc2c(C)c(OCc3ccc(C(C)(C)C)cc3)ccc12`, the IC50 in [1] (read-out: IC50) came out at 4600 nM.

For the compound `Cc1cc(C)cc(COc2ccc3c(C)c(CC(=O)O)c(=O)oc3c2C)c1`, in series [1] (read-out: IC50), the IC50 turned out to be 540 nM.

Take `Cc1cc(C)cc(-n2ccnc2SCC(=O)Nc2ccc(Cl)cc2)c1`: the IC50 in [1] (read-out: IC50) came out at 4600 nM.

Consider `Cc1cccc(-n2ccnc2SCC(=O)Nc2ccc(Cl)cc2)c1`, for which, in series [1] (read-out: IC50), the half-maximal inhibitory concentration (IC50) amounted to 6200 nM.

As to `COc1cccc(-n2ccnc2SCC(=O)Nc2ccc(C)cc2)c1`, in series [1] (read-out: IC50), the IC50 worked out at 7100 nM.

Consider `Cc1cccc(-n2ccnc2SCC(=O)Nc2ccc(Br)cc2)c1`, for which the half-inhibitory concentration (IC50) in series [1] (read-out: IC50) came out at 6400 nM.

Turning to `Cc1ccc(NC(=O)CSc2nccn2-c2ccc(Cl)cc2)cc1`, in series [1] (read-out: IC50), the concentration for half-maximal inhibition (IC50) stood at 1600 nM.

For the compound `CCOc1ccc(-n2ccnc2SCC(=O)Nc2ccc(Cl)cc2)cc1`, the IC50 in series [1] (read-out: IC50) came to 1700 nM.

Consider `O=C(CSc1nccn1-c1ccc(Cl)cc1)Nc1ccc(Cl)cc1`, for which, in series [1] (read-out: IC50), the concentration for half-maximal inhibition (IC50) was 1700 nM.

Regarding `O=C(CSc1nccn1-c1ccc(Cl)cc1)Nc1ccc([N+](=O)[O-])cc1`, the IC50 in series [1] (read-out: IC50) stood at 7400 nM.

For `Cc1c(CC(=O)O)c(=O)oc2c(C)c(OCc3cccc(F)c3)ccc12`, the IC50 in series [1] (read-out: IC50) is 840 nM.

On to `CCCCCOc1ccc2c(C)c(CC(=O)O)c(=O)oc2c1C`, for which the IC50 in series [1] (read-out: IC50) was 1200 nM.

In the case of `O=C(CSc1nccn1-c1cccc(Cl)c1)Nc1ccc(Cl)c(Cl)c1`, the concentration for half-maximal inhibition (IC50) in series [1] (read-out: IC50) was 2900 nM.

For the compound `CN1Cc2c(Cl)cc(Cl)cc2[C@H](c2cccc(S(=O)(=O)NCCOCCOCCNC(=O)NCCCCNC(=O)NCCOCCOCCNS(=O)(=O)c3cccc([C@@H]4CN(C)Cc5c(Cl)cc(Cl)cc54)c3)c2)C1`, the inhibition entry in series [5] was “inactive”. Moreover, the inhibition entry in series [6], in series [7] and in series [8] was “Active” each time.

As to `COc1ccc(-n2ccnc2SCC(=O)Nc2ccc(Br)cc2)cc1`, the IC50 in [1] (read-out: IC50) was determined as 1900 nM.

For `Cc1c(CC(=O)O)c(=O)oc2c(C)c(OCc3ccccc3F)ccc12`, in [1] (read-out: IC50), the half-maximal inhibitory concentration (IC50) was found to be 510 nM.

Regarding `Cc1cc(C)cc(-n2ccnc2SCC(=O)Nc2ccc(C)c(Cl)c2)c1`, the IC50 in [1] (read-out: IC50) was 2100 nM.

Regarding `Cc1ccc(NC(=O)CSc2nccn2-c2ccccc2)cc1Cl`, in [1] (read-out: IC50), the IC50 stood at 1500 nM.

For `Cc1c(CC(=O)O)c(=O)oc2c(C)c(OCc3cccc(I)c3)ccc12`, the inhibition result in [9], in [10], in series [11], in series [14] and in series [15] was “Active” throughout. Also, the Activity result in series [12] and in series [13] was “Non-Toxic” each time.

Take `O=C(CSc1nccn1-c1ccc(F)cc1)Nc1ccc(Cl)c(Cl)c1`: in [1] (read-out: IC50), the IC50 turned out to be 2600 nM.

On to `CCc1ccc(NC(=O)CSc2nccn2-c2ccc(Cl)cc2)cc1`, for which the IC50 in series [1] (read-out: IC50) was 5700 nM.

With `O=C(CSc1nccn1-c1ccc(Cl)cc1)Nc1cccc(C(F)(F)F)c1`, in [1] (read-out: IC50), the IC50 stood at 12000 nM.
